# Reference: patent publication US20100120763A1, “IMIDAZO[5,1-C][1,2,4]BENZOTRIAZINE DERIVATIVES AS INHIBITORS OF PHOSPHODIESTERASES” (priority 2008, published 2010)
# How the values were obtained:
# PDE10A = biological target: T1, PDE10A (Homo sapiens, UniProt Q9Y233); assay: Inhibition of recombinant PDE10A (baculovirus/SF21 system), [3H]-cAMP SPA; format: biochemical; settings: recombinant PDE10A1, cytosolic; 0.1 μM [3H]-cAMP, 37° C., 30 minutes; read-out: PDE10A IC50
# T1 construct: made in house; host or cells: SF21 insect cells (baculovirus)
# Experimental: Inhibition of Recombinant PDE10A (Baculovirus/SF21 System)
# The gene was than inserted into a baculovirus vector, ligated with the baculovirus DNA. The enzyme-protein was expressed in SF21-cells. The enzyme was isolated from these cells by harvesting the cells by an centrifugation at 500 g to collect the cells.
# The cells were resuspended in 50 mM Tris-HCl/1 mM EDTA/250 mM Sucrose buffer, pH=7.4 (Sigma, Deisenhofen, Germany; Merck, Darmstadt, Germany) and lysed by sonification of the cells (three times for 15 seconds, Labsonic U, Fa. Braun, Degersheim, Switzerland, level “high”). The cytosolic PDE10A was obtained by a centrifugation at 48,000 g for 1 h in the supernatant and stored at −70° C.
# PDE activity was determined in a one step procedure in microtiter plates. The reaction mixture of 100 μl contained 50 mM Tris-HCl/5 mM MgCl2 buffer (pH=7.4, Sigma, Deisenhofen, Germany; Merck, Darmstadt, Germany) 0.1 μM [3H]-cAMP (Amersham, Buckinghamshire, UK) and the enzyme. Non-specific enzyme activity was determined without the enzyme. The reaction was initiated by addition of the substrate solution and was carried out at 37° C. for 30 minutes. Enzymatic activity then was stopped by addition of 25 μl Ysi-SPA-beads (Amersham-Pharmacia). One hour later the mixture was measured in a liquid scintillation counter for microtiter plates (Microbeta Trilux). The Biomek 2000 (Beckman) was used routinely for pipetting of the incubation mixture. […] For determination of IC50 values the Hill-plot, 2-parameter-model, was used.
# PDE2A = biological target: T2, PDE2A (Homo sapiens, UniProt O00408); assay: Inhibition of recombinant PDE2A (expressed in baculovirus/SF21-cells), [3H]-cAMP SPA; format: biochemical
# T2 construct: made in house; host or cells: SF21 insect cells (baculovirus)
# Experimental: Inhibition of Recombinant PDE2A (Expressed in Baculovirus/SF21-Cells)
# PDE2A (NM002599) was cloned and the gene was inserted in the baculovirus and the enzyme-protein expressed in SF21-cells. The enzyme was isolated from these cells by harvesting the cells by an centrifugation at 200 g to collect the cells. The cells were resuspended in 50 mM Tris-HCl/5 mM MgCl2 buffer (pH=7.4) (Sigma, Deisenhofen, Germany; Merck, Darmstadt, Germany) and lysed by a sonication of the cells (three times for 15 seconds, Labsonic U, Fa. Braun, Degersheim, Switzerland, level “high”). The membrane fraction of PDE2A was obtained by a centrifugation at 48 000 g for 1 h, resuspended in buffer and stored at −70° C.
# PDE2A activity was determined in a one step procedure in microtiterplates. The reaction mixture of 100 μl contained 50 mM Tris-HCl/5 mM MgCl2 buffer (pH=7.4) (Sigma, Deisenhofen, Germany; Merck, Darmstadt, Germany), 0.5 μM [3H]-cAMP (Amersham, Buckinghamshire, UK), 1000 nM cGMP and the enzyme. Non-specific enzyme activity was tested in the absence of cGMP. The reaction was initiated by addition of the substrate solution and was carried out at 37° C. for 30 minutes. Enzymatic activity then was stopped by addition of 25 μl SPA-beads (Amersham-Pharmacia). One hour later the mixture was measured in a liquid scintillation counter for microtiterplates (Microbeta Trilux). For pipetting of the incubation mixture the robot Biomek (Fa. Beckman) was routinely used.
# For determination of IC50 values the Hill-plot, 2-parameter-model, was used.
# T2 sequence (O00408 whole entry): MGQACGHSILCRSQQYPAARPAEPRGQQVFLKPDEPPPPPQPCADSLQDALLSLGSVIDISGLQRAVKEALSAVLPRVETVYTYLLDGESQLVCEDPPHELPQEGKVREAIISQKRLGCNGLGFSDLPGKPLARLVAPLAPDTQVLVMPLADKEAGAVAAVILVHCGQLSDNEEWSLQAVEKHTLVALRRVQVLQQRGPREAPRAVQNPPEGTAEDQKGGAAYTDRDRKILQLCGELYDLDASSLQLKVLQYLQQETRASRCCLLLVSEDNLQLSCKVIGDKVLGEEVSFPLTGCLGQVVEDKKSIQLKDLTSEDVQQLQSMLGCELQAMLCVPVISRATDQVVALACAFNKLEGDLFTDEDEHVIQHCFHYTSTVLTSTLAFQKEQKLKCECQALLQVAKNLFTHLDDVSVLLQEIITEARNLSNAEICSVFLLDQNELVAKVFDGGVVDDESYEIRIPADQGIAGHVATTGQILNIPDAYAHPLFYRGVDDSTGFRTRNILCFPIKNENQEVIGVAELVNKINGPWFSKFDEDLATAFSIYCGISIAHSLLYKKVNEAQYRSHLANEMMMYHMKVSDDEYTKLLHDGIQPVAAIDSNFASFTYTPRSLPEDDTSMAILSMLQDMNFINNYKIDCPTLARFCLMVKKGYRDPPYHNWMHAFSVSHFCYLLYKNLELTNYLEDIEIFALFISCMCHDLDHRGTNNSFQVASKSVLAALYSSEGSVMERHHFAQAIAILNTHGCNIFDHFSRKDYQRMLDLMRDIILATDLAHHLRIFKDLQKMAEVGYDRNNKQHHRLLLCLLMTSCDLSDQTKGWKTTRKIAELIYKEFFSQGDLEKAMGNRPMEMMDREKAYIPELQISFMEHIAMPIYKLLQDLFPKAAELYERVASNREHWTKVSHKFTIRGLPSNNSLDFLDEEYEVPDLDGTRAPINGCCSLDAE
# T1 sequence (Q9Y233 1-779 isoform Q9Y233-1): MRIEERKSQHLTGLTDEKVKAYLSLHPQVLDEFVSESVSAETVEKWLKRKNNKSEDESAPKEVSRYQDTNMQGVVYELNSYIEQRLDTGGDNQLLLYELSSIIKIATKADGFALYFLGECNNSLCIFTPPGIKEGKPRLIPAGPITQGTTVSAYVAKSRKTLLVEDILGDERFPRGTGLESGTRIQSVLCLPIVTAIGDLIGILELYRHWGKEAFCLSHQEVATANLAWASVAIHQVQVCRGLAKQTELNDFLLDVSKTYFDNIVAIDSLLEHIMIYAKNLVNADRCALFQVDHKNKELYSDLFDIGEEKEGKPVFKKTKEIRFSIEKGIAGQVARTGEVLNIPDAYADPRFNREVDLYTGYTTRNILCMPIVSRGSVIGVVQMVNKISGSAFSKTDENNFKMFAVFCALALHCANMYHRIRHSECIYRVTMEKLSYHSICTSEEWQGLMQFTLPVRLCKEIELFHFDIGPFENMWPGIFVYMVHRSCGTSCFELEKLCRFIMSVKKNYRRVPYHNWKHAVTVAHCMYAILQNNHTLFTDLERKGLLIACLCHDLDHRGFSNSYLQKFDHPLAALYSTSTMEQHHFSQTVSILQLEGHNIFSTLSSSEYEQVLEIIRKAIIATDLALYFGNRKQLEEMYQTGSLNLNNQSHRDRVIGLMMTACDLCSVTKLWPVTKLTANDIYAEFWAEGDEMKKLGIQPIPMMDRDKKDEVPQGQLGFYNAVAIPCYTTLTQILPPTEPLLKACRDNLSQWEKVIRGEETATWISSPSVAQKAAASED
Compound,IC50 (PDE10A) [nM],IC50 (PDE2A) [nM]
"CCOc1ccc(Cl)c(-c2nc(C)c3nnc4c(OC)cc(F)cc4n23)c1 [Example 108, 1-(2-chloro-5-ethoxyphenyl)-8-fluoro-6-methoxy-3-methylimidazo[5,1-c][1,2,4]benzotriazine]",8.37,55
"COc1cc(F)cc2c1nnc1c(C)nc(-c3c(C)noc3C)n12 [Example 115, 1-(3,5-dimethylisoxazol-4-yl)-8-fluoro-6-methoxy-3-methylimidazo[5,1-c][1,2,4]benzotriazine]",67,> 10000
"COc1cc(F)cc2c1nnc1c(C)nc(-c3c(C)nn(C)c3C)n12 [Example 116, 8-fluoro-6-methoxy-3-methyl-1-(1,3,5-trimethyl-1H-pyrazol-4-yl)imidazo[5,1-c][1,2,4]benzotriazine]",13.1,1500
"COc1cc(F)cc2c1nnc1c(C)nc(-c3c(C)n[nH]c3C)n12 [Example 124, 1-(3,5-dimethyl-1H-pyrazol-4-yl)-8-fluoro-6-methoxy-3-methylimidazo[5,1-c][1,2,4]benzotriazine]",13,1430
"COc1cc(F)cc2c1nnc1c(C)nc(-c3cc(OC(F)(F)F)ccc3Cl)n12 [Example 125, 1-[2-chloro-5-(trifluoromethoxy)phenyl]-8-fluoro-6-methoxy-3-methylimidazo[5,1-c][1,2,4]benzotriazine]",12.1,117
"COc1ccc(Cl)c(-c2nc(C)c3nnc4c(OC)cc(F)cc4n23)c1 [Example 126, 1-(2-chloro-5-methoxyphenyl)-8-fluoro-6-methoxy-3-methylimidazo[5,1-c][1,2,4]benzotriazine]",2.45,108
"COc1cc(F)cc2c1nnc1c(C)nc(-c3cc(C(N)=O)ccc3F)n12 [Example 128, 4-fluoro-3-(8-fluoro-6-methoxy-3-methylimidazo[5,1-c][1,2,4]benzotriazin-1-yl)benzamide]",6.31,654
"Cc1nc(-c2cc(Cl)ccc2Cl)n2c1nnc1c(Cl)cc(C(F)(F)F)cc12 [Example 133, 6-chloro-1-(2,5-dichlorophenyl)-3-methyl-8-(trifluoromethyl)imidazo[5,1-c][1,2,4]benzotriazine]",9.69,403
"COc1cc(C(F)(F)F)cc2c1nnc1c(C)nc(-c3ccncc3C)n12 [Example 134, 6-methoxy-3-methyl-1-(3-methylpyridin-4-yl)-8-(trifluoromethyl)benzo[e]imidazo[5,1-c][1,2,4]triazine]",1.48,346
"COc1cc(C(F)(F)F)cc2c1nnc1c(C)nc(-c3ccoc3)n12 [Example 143, 1-(Furan-3-yl)-6-methoxy-3-methyl-8-(trifluoromethyl)benzo[e]imidazo[5,1-c][1,2,4]triazine]",57,> 1000
"COc1cc(O)cc2c1nnc1c(C)nc(-c3cnccc3C)n12 [Example 149, 6-methoxy-3-methyl-1-(4-methylpyridin-3-yl)benzo[e]imidazo[5,1-c][1,2,4]triazin-8-ol]",22,451
"COc1cc(OC(F)F)cc2c1nnc1c(C)nc(-c3cnccc3C)n12 [Example 150, 8-(difluoromethoxy)-6-methoxy-3-methyl-1-(4-methylpyridin-3-yl)benzo[e]imidazo[5,1-c][1,2,4]triazine]",7,944
"COc1cc(OCc2ccccc2)cc2c1nnc1c(C)nc(-c3ccncc3C)n12 [Example 151, 8-(benzyloxy)-6-methoxy-3-methyl-1-(3-methylpyridin-4-yl)imidazo[5,1-c][1,2,4]benzotriazine]",0.7,80.6

# Continued, values first:
IC50 (PDE10A) [nM],IC50 (PDE2A) [nM],Compound
2.98,62.5,"COc1cc(F)cc2c1nnc1c(C)nc(-c3cc(C)ccc3Cl)n12 [Example 107, 1-(2-chloro-5-methylphenyl)-8-fluoro-6-methoxy-3-methylimidazo[5,1-c][1,2,4]benzotriazine]"
102,> 5000,"COc1cc(F)cc2c1nnc1c(C)nc(-c3cccnc3)n12 [Example 109, 8-fluoro-6-methoxy-3-methyl-1-pyridin-3-ylimidazo[5,1-c][1,2,4]benzotriazine]"
8.52,609,"COc1cc(F)cc2c1nnc1c(C)nc(-c3ccc(F)cc3C)n12 [Example 110, 8-fluoro-1-(4-fluoro-2-methylphenyl)-6-methoxy-3-methylimidazo[5,1-c][1,2,4]benzotriazine]"
3.01,324,"COc1cc(F)cc2c1nnc1c(C)nc(-c3ccc(F)cc3Cl)n12 [Example 111, 1-(2-chloro-4-fluorophenyl)-8-fluoro-6-methoxy-3-methylimidazo[5,1-c][1,2,4]benzotriazine]"
1.88,636,"COc1cc(F)cc2c1nnc1c(C)nc(-c3ccc(C)cc3Cl)n12 [Example 112, 1-(2-chloro-4-methylphenyl)-8-fluoro-6-methoxy-3-methylimidazo[5,1-c][1,2,4]benzotriazine]"
17.1,1060,"COc1cc(F)cc2c1nnc1c(C)nc(-c3ccc(C)cc3F)n12 [Example 114, 8-fluoro-1-(2-fluoro-4-methylphenyl)-6-methoxy-3-methylimidazo[5,1-c][1,2,4]benzotriazine]"
3.55,1150,"COc1cc(F)cc2c1nnc1c(C)nc(-c3cccc(F)c3C)n12 [Example 117, 8-fluoro-1-(3-fluoro-2-methylphenyl)-6-methoxy-3-methylimidazo[5,1-c][1,2,4]benzotriazine]"
1.64,269,"COc1cc(F)cc2c1nnc1c(C)nc(-c3sccc3C)n12 [Example 119, 8-fluoro-6-methoxy-3-methyl-1-(3-methylthiophen-2-yl)imidazo[5,1-c][1,2,4]benzotriazine]"
53.6,> 10000,"COc1cc(F)cc2c1nnc1c(C)nc(-c3ccc(F)nc3C)n12 [Example 120, 8-fluoro-1-(6-fluoro-2-methylpyridin-3-yl)-6-methoxy-3-methylimidazo[5,1-c][1,2,4]benzotriazine]"
133,> 1000,"COc1cc(F)cc2c1nnc1c(C)nc(-c3cnc(F)c(C)c3)n12 [Example 121, 8-fluoro-1-(6-fluoro-5-methylpyridin-3-yl)-6-methoxy-3-methylimidazo[5,1-c][1,2,4]benzotriazine]"
39.3,1620,"COc1cncc(-c2nc(C)c3nnc4c(OC)cc(F)cc4n23)c1 [Example 122, 8-fluoro-6-methoxy-1-(5-methoxypyridin-3-yl)-3-methylimidazo[5,1-c][1,2,4]benzotriazine]"
25.4,2380,"COc1cc(F)cc2c1nnc1c(C)nc(-c3cnccc3C)n12 [Example 123, 8-fluoro-6-methoxy-3-methyl-1-(4-methylpyridin-3-yl)imidazo[5,1-c][1,2,4]benzotriazine]"
11.7,3420,"COc1cc(F)cc2c1nnc1c(C)nc(-c3sc(C)nc3C)n12 [Example 127, 1-(2,4-dimethyl-1,3-thiazol-5-yl)-8-fluoro-6-methoxy-3-methylimidazo[5,1-c][1,2,4]benzotriazine]"
61.6,4950,"COc1cc(F)cc2c1nnc1c(C)nc(-c3ccncc3)n12 [Example 129, 8-fluoro-6-methoxy-3-methyl-1-pyridin-4-ylimidazo[5,1-c][1,2,4]benzotriazine]"
